Data: ChEMBL document CHEMBL6153133, “Discovery of Diphenyl Ether Derivatives as Novel BKCa Channel Activators: Structure-Activity Relationship, Cryo-EM Complex Structures, and In Vivo Animal Studies” (J Med Chem, 2025)

Assays:
[1] = biological target: T1, Calcium-activated potassium channel subunit alpha-1 (Homo sapiens, UniProt Q12791); assay: Activation of human BK ca channel expressed in CHO cells by whole cell patch clamp method; format: cell-based
[2] = biological target: T1, Calcium-activated potassium channel subunit alpha-1; assay: Activation of BKca channel (unknown origin) by patch-clamp method
[3] = biological target: T1, Calcium-activated potassium channel subunit alpha-1; assay: Activation of BKca channel (unknown origin) by cell based method
[4] = system: Urinary bladder; assay: Induction of relaxation in Sprague-Dawley rat urinary bladder strips assessed as reduction in contraction; format: functional, tissue-based
[5] = system: Calcium-activated potassium channel subunit alpha-1 (Homo sapiens), Q12791 [UNDEFINED MUTATION]; assay: Activation of hyperactive human BKca channel G803D/N806K mutant transfected in human AD-293 cells assessed as maximum relative fluorescence value at 5 uM preincubated for 15 mins followed by Tl+ stimulus buffer addition and measured after 80 sec by Flexstation3 multimode microplate reader analysis relative to control; format: cell-based; settings: time 980.0 sec
Sequence of Calcium-activated potassium channel subunit alpha-1 (Homo sapiens), Q12791 [UNDEFINED MUTATION] (Q12791 whole entry, looked up, stated change not applied): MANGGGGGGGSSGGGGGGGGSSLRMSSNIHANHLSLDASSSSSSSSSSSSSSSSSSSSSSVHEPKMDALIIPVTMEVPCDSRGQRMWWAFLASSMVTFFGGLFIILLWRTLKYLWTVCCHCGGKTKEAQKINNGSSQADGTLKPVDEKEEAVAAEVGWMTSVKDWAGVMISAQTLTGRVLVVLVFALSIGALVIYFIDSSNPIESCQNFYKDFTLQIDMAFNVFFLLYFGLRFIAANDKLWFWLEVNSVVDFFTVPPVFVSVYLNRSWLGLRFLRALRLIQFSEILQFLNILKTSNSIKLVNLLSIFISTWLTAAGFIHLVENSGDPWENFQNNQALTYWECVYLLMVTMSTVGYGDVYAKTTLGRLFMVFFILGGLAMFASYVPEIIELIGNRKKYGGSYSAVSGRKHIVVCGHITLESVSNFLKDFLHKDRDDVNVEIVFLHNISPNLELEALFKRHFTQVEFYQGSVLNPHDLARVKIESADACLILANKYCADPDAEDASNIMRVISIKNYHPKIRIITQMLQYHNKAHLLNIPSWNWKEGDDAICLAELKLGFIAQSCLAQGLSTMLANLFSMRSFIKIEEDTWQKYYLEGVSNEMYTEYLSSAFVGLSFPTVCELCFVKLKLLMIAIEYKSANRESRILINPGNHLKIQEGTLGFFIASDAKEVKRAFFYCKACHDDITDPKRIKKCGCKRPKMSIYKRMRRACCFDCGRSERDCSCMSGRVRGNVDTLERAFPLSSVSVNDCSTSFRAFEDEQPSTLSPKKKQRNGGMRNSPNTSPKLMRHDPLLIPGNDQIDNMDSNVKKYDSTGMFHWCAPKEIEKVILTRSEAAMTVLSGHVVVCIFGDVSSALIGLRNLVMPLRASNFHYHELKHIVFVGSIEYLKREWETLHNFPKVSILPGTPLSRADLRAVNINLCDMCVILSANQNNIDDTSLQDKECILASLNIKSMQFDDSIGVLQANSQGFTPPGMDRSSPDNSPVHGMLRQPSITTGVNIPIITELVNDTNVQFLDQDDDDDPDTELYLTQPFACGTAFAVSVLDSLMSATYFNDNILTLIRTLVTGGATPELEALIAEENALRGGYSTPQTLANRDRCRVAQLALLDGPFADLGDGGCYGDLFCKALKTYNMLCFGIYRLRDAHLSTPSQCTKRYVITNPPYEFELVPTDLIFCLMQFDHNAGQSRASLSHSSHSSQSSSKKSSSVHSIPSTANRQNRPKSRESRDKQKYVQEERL

[6] = biological target: T1, Calcium-activated potassium channel subunit alpha-1; assay: Activation of BKca channel (unknown origin) by cell-based fluorescence assay
[7] = Permeability of compound at pH 7.4 measured after 4 hrs by GIT-PAMPA assay; format: ADME; settings: read-out: permeability
[8] = Metabolic stability in rat liver microsomes assessed as parent compound remaining at 1 uM preincubated for 15 mins followed by UDPGA addition and measured after 60 mins by LC-MS/MS analysis; format: ADME, Microsome; settings: time 75 min, read-out: Stability
[9] = Metabolic stability in rat liver microsomes assessed as parent compound remaining at 1 uM preincubated for 5 mins followed by NADPH addition and measured after 30 mins by LC-MS/MS analysis; format: ADME, Microsome; settings: read-out: Stability
[10] = Metabolic stability in human liver microsomes assessed as parent compound remaining at 1 uM preincubated for 5 mins followed by NADPH addition and measured after 30 mins by LC-MS/MS analysis; format: ADME, Microsome; settings: read-out: Stability
[11] = Metabolic stability in human liver microsomes assessed as parent compound remaining at 1 uM preincubated for 15 mins followed by UDPGA addition and measured after 60 mins by LC-MS/MS analysis; format: ADME, Microsome; settings: time 75 min, read-out: Stability
[12] = Activation of rat BKca channel extracted from Xenopus laevis Oocytes by patch-clamp electrophysiology recordings; format: cell-based; settings: Oocyte
[13] = biological target: Calcium-activated potassium channel subunit alpha-1 (Homo sapiens, UniProt Q12791, G803D/N806K); assay: Activation of hyperactive human BKca channel G803D/N806K mutant transfected in human AD-293 cells incubated for 15 mins by Flexstation3 multimode microplate reader analysis; format: cell-based
Sequence of Calcium-activated potassium channel subunit alpha-1 (Homo sapiens, UniProt Q12791, G803D/N806K) (Q12791 whole entry, looked up, stated change not applied): as above

[14] = Drug metabolism in male Sprague-Dawley rat assessed as glucuronide conjugated metabolite formation at 10 mg/kg, po measured after approximately 4.2 hrs by LC-MS/MS analysis; format: ADME, organism-based; settings: in vivo

T1 sequence (Q12791 whole entry): as the sequence (Q12791 whole entry, looked up, stated change not applied) above

## CCc1oc2ccccc2c1C(=O)c1cc(Br)c(O)c(Br)c1 [BENZBROMARONE]
[1]
  EC50: 111 µM

## O=c1[nH]c2cc(C(F)(F)F)ccc2n1-c1cc(C(F)(F)F)ccc1O
[2]
  EC50: 10 µM

## O=C(O)c1ccc(Cl)c2c1[nH]c1c3ccc(C(F)(F)F)cc3oc12
[3]
  EC50: 5.4 µM
[4]
  EC50: 2.5 µM
[5]
  Activity: 34.9%
[6]
  EC50: 5.4 µM

## Nc1ccc(Oc2c(F)c(F)c(C(F)(F)F)c(F)c2F)c(O)c1
[7]
  Papp at 4 h: 41.1 ×10⁻⁶ cm/s
[8]
  remaining at 1 h, 1 µM: 5.8%
[9]
  remaining at 0.5 h, 1 µM: 34.6%
[10]
  remaining at 0.5 h, 1 µM: 97%
[11]
  remaining at 1 h, 1 µM: 4.8%
[12]
  EC50: 0.28 µM
[13]
  EC50: 0.12 µM
[14]
  Drug metabolism: metabolite_detected
